Measurements from the NIST ThermoML archive (doi:10.1016/j.jct.2015.06.023).
Numbers after ± are expanded uncertainties.

How the values were obtained:
[1] = Liquid; for mass density: 101.33 kPa, Vibrating tube method; for vapor or sublimation pressure: 363.2 K, Closed cell (Static) method
[2] = excess molar enthalpy (molar enthalpy of mixing); xn = mol fraction of the nth substance listed; details: 363.2 K, 100 kPa, Liquid, Flow calorimetry
[3] = activity coefficient (dimensionless); of the first substance listed, at infinite dilution; xn = mol fraction of the nth substance listed; details: 100 kPa, Liquid, Chromatography, x1 = 0

CCCCCC[n+]1ccccc1.O=S(=O)([N-]S(=O)(=O)C(F)(F)F)C(F)(F)F [1-hexylpyridinium bis(trifluromethylsulfonyl)imide]
[1]
Details	mass density [kg/m3]
293.15 K	1389.16 ± 1.1
298.15 K	1384.56 ± 1.1
299.15 K	1383.67 ± 1.1
303.15 K	1380.22 ± 1.1
313.15 K	1371.26 ± 1.1
323.15 K	1362.38 ± 1.1
333.15 K	1353.54 ± 1.1
343.15 K	1344.76 ± 1.1
353.15 K	1336.02 ± 1.1

CCCCCC[n+]1ccccc1.O=S(=O)([N-]S(=O)(=O)C(F)(F)F)C(F)(F)F [1-hexylpyridinium bis(trifluromethylsulfonyl)imide] + CCCCO
[2]
Details	excess molar enthalpy [kcal/mol]
x2 = 0.043	0.0722 ± 0.00502
x2 = 0.083	0.14 ± 0.00789
x2 = 0.157	0.258 ± 0.0134
x2 = 0.222	0.356 ± 0.0182
x2 = 0.282	0.436 ± 0.0222
x2 = 0.384	0.55 ± 0.0287
x2 = 0.469	0.619 ± 0.0311
x2 = 0.572	0.661 ± 0.0335
x2 = 0.655	0.652 ± 0.0335
x2 = 0.743	0.594 ± 0.0311
x2 = 0.812	0.505 ± 0.0263
x2 = 0.868	0.399 ± 0.0206
x2 = 0.914	0.284 ± 0.0153
x2 = 0.952	0.168 ± 0.0108
x2 = 0.985	0.0549 ± 0.00741

CCCCCC[n+]1ccccc1.O=S(=O)([N-]S(=O)(=O)C(F)(F)F)C(F)(F)F [1-hexylpyridinium bis(trifluromethylsulfonyl)imide] + CCCO
[2]
Details	excess molar enthalpy [kcal/mol]
x2 = 0.052	0.0851 ± 0.0055
x2 = 0.1	0.165 ± 0.00884
x2 = 0.185	0.299 ± 0.0155
x2 = 0.259	0.402 ± 0.0206
x2 = 0.324	0.483 ± 0.0239
x2 = 0.432	0.589 ± 0.0287
x2 = 0.519	0.643 ± 0.0335
x2 = 0.621	0.661 ± 0.0335
x2 = 0.699	0.633 ± 0.0311
x2 = 0.779	0.56 ± 0.0287
x2 = 0.841	0.462 ± 0.0237
x2 = 0.889	0.358 ± 0.0186
x2 = 0.928	0.251 ± 0.0141
x2 = 0.961	0.146 ± 0.01
x2 = 0.988	0.0477 ± 0.00765

c1ccccc1 [benzene] + CCCCCC[n+]1ccccc1.O=S(=O)([N-]S(=O)(=O)C(F)(F)F)C(F)(F)F
[3]
Details	activity coefficient
303.2 K	0.639 ± 0.039
313.2 K	0.655 ± 0.039
323.2 K	0.627 ± 0.038
333.2 K	0.657 ± 0.039
343.2 K	0.605 ± 0.037

CCCCO [butan-1-ol]
Details	vapor or sublimation pressure [kPa]
[1]	34.47 ± 0.54

CCCCO [butan-1-ol] + CCCCCC[n+]1ccccc1.O=S(=O)([N-]S(=O)(=O)C(F)(F)F)C(F)(F)F
[3]
Details	activity coefficient
303.2 K	2.74 ± 0.16
313.2 K	1.72 ± 0.1
323.2 K	1.59 ± 0.091
333.2 K	1.42 ± 0.08
343.2 K	1.25 ± 0.069

C1CCCCC1 [cyclohexane] + CCCCCC[n+]1ccccc1.O=S(=O)([N-]S(=O)(=O)C(F)(F)F)C(F)(F)F
[3]
Details	activity coefficient
303.2 K	5.19 ± 0.31
313.2 K	4.86 ± 0.29
323.2 K	4.68 ± 0.28
333.2 K	4.41 ± 0.26
343.2 K	4.3 ± 0.26

CCO [ethanol] + CCCCCC[n+]1ccccc1.O=S(=O)([N-]S(=O)(=O)C(F)(F)F)C(F)(F)F
[3]
Details	activity coefficient
303.2 K	1.64 ± 0.094
313.2 K	1.35 ± 0.075
323.2 K	1.28 ± 0.071
333.2 K	1.13 ± 0.061
343.2 K	0.996 ± 0.053

CCCO [propan-1-ol]
Details	vapor or sublimation pressure [kPa]
[1]	76.56 ± 0.69

CCCO [propan-1-ol] + CCCCCC[n+]1ccccc1.O=S(=O)([N-]S(=O)(=O)C(F)(F)F)C(F)(F)F
[3]
Details	activity coefficient
303.2 K	1.98 ± 0.12
313.2 K	1.49 ± 0.085
323.2 K	1.47 ± 0.084
333.2 K	1.26 ± 0.07
343.2 K	1.15 ± 0.063

Cc1ccccc1 [toluene] + CCCCCC[n+]1ccccc1.O=S(=O)([N-]S(=O)(=O)C(F)(F)F)C(F)(F)F
[3]
Details	activity coefficient
303.2 K	0.828 ± 0.046
313.2 K	0.868 ± 0.047
323.2 K	0.82 ± 0.045
333.2 K	0.847 ± 0.047
343.2 K	0.882 ± 0.048
